This is an account of results in PMC13288469, “Bile acids accumulate norovirus-like particles and enhance binding to and entry into human enteric epithelial cells” (Journal of Virology, 2026).

The target in this assay is T1, HuNoV GII.4 VLP (Human calicivirus NLV/DIJON171/96, UniProt Q8QY55).
T1 construct: full VP1 virus-like particle, self-assembled, from baculovirus (Bac-to-Bac) infected SF-9 cells, sucrose gradient purified; amine-coupled to CM5 chip
The assay can be described thus: SPR, Biacore T-200, VLP immobilized on CM5 chip. In kind it is binding. From the text:
SPR, Biacore T-200, VLP immobilized on CM5 chip on HuNoV GII.4 VLP

SMILES strings stand for the structures.

For the compound `C[C@H](CCC(=O)NCC(=O)O)[C@H]1CC[C@H]2[C@@H]3[C@H](O)C[C@@H]4C[C@H](O)CC[C@]4(C)[C@H]3CC[C@]12C` [GCDCA], binding was put at a Kd of 123 ± 24 µM. Under `C[C@H](CCC(=O)NCCS(=O)(=O)O)[C@H]1CC[C@H]2[C@@H]3[C@H](O)C[C@@H]4C[C@H](O)CC[C@]4(C)[C@H]3CC[C@]12C` [TCDCA] stands 236 ± 58 µM; under `C[C@H](CCC(=O)NCCS(=O)(=O)O)[C@H]1CC[C@H]2[C@@H]3CC[C@@H]4C[C@H](O)CC[C@]4(C)[C@H]3CC[C@]12C` [TLCA], 64 ± 9.9 µM. Then `C[C@H](CCC(=O)NCCS(=O)(=O)O)[C@H]1CC[C@H]2[C@@H]3CC[C@@H]4C[C@H](O)CC[C@]4(C)[C@H]3C[C@H](O)[C@]12C` [TDCA], with 308 ± 29.7 µM. Compound `C[C@H](CCC(=O)NCC(=O)O)[C@H]1CC[C@H]2[C@@H]3CC[C@@H]4C[C@H](O)CC[C@]4(C)[C@H]3C[C@H](O)[C@]12C` [GDCA] showed a Kd of 286 ± 64.3 µM.

Take `C[C@H](CCC(=O)O)[C@H]1CC[C@H]2[C@@H]3CC[C@@H]4C[C@H](O)CC[C@]4(C)[C@H]3C[C@H](O)[C@]12C` [DCA]: the Kd came out at 176 ± 4.9 µM.
